# Experimental data as given in patent US20040157863A1, “Triazolopyrimidines” (priority 2001, published 2004).
# Where two headings read alike, the source gives them in different places.
# Experiments:
# Podosphaera leucotricha = assay: Podosphaera test (apple)/protective; details: apple plants, protective spray, application rate 100 g/ha, evaluation 10 days after inoculation
# Experimental: Podosphaera Test (Apple)/Protective
# After the spray coating has dried on, the plants are inoculated with an aqueous spore suspension of the apple mildew pathogen Podosphaera leucotricha. The plants are then placed in the greenhouse at about 23° C. and a relative atmospheric humidity of about 70%.
# Evaluation is carried out 10 days after the inoculation.
# Venturia inaequalis = assay: Venturia test (apple)/protective; details: apple plants, protective spray, application rate 100 g/ha, evaluation 12 days after inoculation
# Experimental: Venturia Test (Apple)/Protective
# After the spray coating has dried on, the plants are inoculated with an aqueous conidia suspension of the apple scab pathogen Venturia inaequalis and then remain in an incubation cabin at about 20° C. and 100% relative atmospheric humidity for one day.
# The plants are then placed in a greenhouse at about 21° C. and a relative atmospheric humidity of about 90%.
# Evaluation is carried out 12 days after the inoculation.
compound,measurement,setting,value
"CSc1nc2nc(Cl)c(-c3c(F)cc(F)cc3F)c(N3CCC(C(F)(F)F)CC3)n2n1 [Example 1, 5-chloro-2-(methylsulphanyl)-7-[4-(trifluoromethyl)-1-piperidinyl]-6-(2,4,6-trifluorophenyl)-[1,2,4]triazolo[1,5-a]pyrimidine]",chromatographic logP,logP (HPLC),4.1
"C[C@H](Nc1c(-c2c(F)cc(F)cc2F)c(Cl)nc2nc(S(C)(=O)=O)nn12)C(F)(F)F [Example 2a, 5-chloro-2-(methylsulphonyl)-N-[(1S)-2,2,2-trifluoro-1-methylethyl]-6-(2,4,6-tri-fluorophenyl)[1,2,4]triazolo[1,5-a]pyrimidin-7-amine]",chromatographic logP,logP (HPLC); HPLC,2.94
"C[C@H](Nc1c(-c2c(F)cc(F)cc2F)c(Cl)nc2nc([S+](C)[O-])nn12)C(F)(F)F (stereo partly drawn) [Example 2b, 5-chloro-2-(methylsulphinyl)-N-[(1S)-2,2,2-trifluoro-1-methylethyl]-6-(2,4,6-trifluorophenyl)[1,2,4]triazolo[1,5-a]pyrimidin-7-amine]",chromatographic logP,logP (HPLC); HPLC,2.5
"CSc1nc2nc(Cl)c(-c3c(F)cc(F)cc3F)c(Cl)n2n1 [Example 568, 5,7-dichloro-2-(methylsulphanyl)-6-(2,4,6-trifluorophenyl)-[1,2,4]triazolo[1,5-a]pyrimidine]",chromatographic logP,logP (HPLC),3.43
CSc1nc2nc(Cl)c(-c3c(Cl)cccc3Cl)c(Cl)n2n1 [Example 572],chromatographic logP,logP (HPLC),3.86
"CSc1nc2nc(O)c(-c3c(F)cc(F)cc3F)c(O)n2n1 [Example 585, 2-methylsulphanyl-6-(2,4,6-trifluoro-phenyl)-[1,2,4]triazolo[1,5-a]pyrimidine-5,7-diol]",chromatographic logP,logP (HPLC),0.47
CS(=O)(=O)c1nc2nc(Cl)c(-c3c(Cl)cccc3Cl)c(NC3CCCC3)n2n1 [compound 6],chromatographic logP,logP (HPLC); HPLC (gradient method),3.35
CSc1nc2nc(Cl)c(-c3c(Cl)cccc3Cl)c(N[C@@H](C)C(F)(F)F)n2n1 [compound 8],chromatographic logP,logP (HPLC); HPLC (gradient method),3.82
CSc1nc2nc(Cl)c(-c3c(F)cc(F)cc3F)c(N[C@@H](C)C(F)(F)F)n2n1 [compound 9],chromatographic logP,logP (HPLC); HPLC (gradient method),3.58
CSc1nc2nc(Cl)c(-c3c(Cl)cccc3Cl)c(N[C@@H](C)C(F)(F)F)n2n1 [drawing 57],Efficacy in %,Podosphaera leucotricha,100%
CSc1nc2nc(Cl)c(-c3c(F)cc(F)cc3F)c(N[C@@H](C)C(F)(F)F)n2n1 [drawing 58],Efficacy in %,Podosphaera leucotricha,94%
CSc1nc2nc(Cl)c(-c3c(Cl)cccc3Cl)c(N[C@@H](C)C(F)(F)F)n2n1 [drawing 60],Efficacy in %,Venturia inaequalis,100%
CSc1nc2nc(Cl)c(-c3c(F)cc(F)cc3F)c(N[C@@H](C)C(F)(F)F)n2n1 [drawing 61],Efficacy in %,Venturia inaequalis,100%
